What was measured:
[1] = test system: ALPK1-dependent NFκB reporter gene activation in HEK293 cells stably expressing an NF-kB reporter (G9 cells); test: NFκB gene reporter alkaline phosphatase assay; format: cell-based; details: Homo sapiens, HEK293; read-out: NFkB assay IC50
Summary of the method: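 HEK293 G9 cells carrying an NF-κB-driven alkaline phosphatase reporter, pretreated 30 min with serially diluted compound, then stimulated with D-glycero-D-manno-6-fluoro-heptose-1β-S-ADP. Reporter activity read with chromogenic pNPP substrate; IC50 from four-parameter logistic fit.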

[2] = target: ALPK1 (Homo sapiens (Human), UniProt Q96QP1); test: ALPK1 in vitro kinase assay (HTRF of TIFA phosphorylation); format: biochemical
ALPK1, sequence (Q96QP1 whole entry): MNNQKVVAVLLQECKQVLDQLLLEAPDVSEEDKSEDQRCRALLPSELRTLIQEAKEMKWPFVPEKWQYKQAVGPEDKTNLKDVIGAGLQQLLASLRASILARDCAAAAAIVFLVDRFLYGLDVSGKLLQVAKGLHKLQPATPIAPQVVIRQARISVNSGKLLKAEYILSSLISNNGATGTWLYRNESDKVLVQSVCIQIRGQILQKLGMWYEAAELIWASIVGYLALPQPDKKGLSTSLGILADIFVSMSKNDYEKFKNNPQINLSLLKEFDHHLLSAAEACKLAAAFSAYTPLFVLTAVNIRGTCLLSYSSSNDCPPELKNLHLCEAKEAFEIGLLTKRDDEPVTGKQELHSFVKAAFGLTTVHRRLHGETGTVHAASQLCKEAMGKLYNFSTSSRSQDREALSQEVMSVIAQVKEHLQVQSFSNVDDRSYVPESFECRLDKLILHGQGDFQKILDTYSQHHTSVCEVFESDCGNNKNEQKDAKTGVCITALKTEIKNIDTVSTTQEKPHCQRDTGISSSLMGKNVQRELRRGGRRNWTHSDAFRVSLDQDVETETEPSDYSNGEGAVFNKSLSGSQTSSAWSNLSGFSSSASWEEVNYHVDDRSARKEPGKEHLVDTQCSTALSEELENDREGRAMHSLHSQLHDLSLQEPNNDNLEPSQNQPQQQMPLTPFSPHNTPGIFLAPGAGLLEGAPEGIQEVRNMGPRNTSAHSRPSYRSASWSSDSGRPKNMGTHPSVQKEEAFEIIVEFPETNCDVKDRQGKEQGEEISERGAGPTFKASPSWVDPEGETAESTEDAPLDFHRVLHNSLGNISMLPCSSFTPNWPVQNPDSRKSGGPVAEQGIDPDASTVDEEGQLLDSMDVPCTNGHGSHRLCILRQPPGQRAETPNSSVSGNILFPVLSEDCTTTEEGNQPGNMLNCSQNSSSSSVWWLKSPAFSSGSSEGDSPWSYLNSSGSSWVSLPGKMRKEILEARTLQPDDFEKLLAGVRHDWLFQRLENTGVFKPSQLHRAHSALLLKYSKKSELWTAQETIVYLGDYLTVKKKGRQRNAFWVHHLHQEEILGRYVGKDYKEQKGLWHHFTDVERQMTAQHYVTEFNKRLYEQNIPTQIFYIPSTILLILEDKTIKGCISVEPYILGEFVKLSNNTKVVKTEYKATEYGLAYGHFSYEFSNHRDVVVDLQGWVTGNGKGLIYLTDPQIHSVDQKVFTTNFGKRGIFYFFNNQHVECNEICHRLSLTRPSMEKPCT

Row | Structure (SMILES) | IC50 [1] [nM] | IC50 [2] [nM]
1 | CC(C)(c1ccc(Br)cc1)c1csc(NC(=O)NCCCS(N)(=O)=O)n1 [Example A132, 3-(3-(4-(2-(4-bromophenyl)propan-2-yl)thiazol-2-yl)ureido)propane-1-sulfonamide] | 4560 | 80
2 | COc1ccc(C(C)(C)c2csc(NC(=O)NCCCO)n2)cc1 [Example A133, 1-(3-hydroxypropyl)-3-(4-(2-(4-methoxyphenyl)propan-2-yl)thiazol-2-yl)urea] | 600 | 57
3 | COc1ccc(C(C)(C)c2csc(NC(=O)NCCCN3CCOCC3)n2)cc1 [Example A134, 1-(4-(2-(4-methoxyphenyl)propan-2-yl)thiazol-2-yl)-3-(3-morpholinopropyl)urea] | 5110 | 152
4 | COc1ccc(C(C)(C)c2csc(NC(=O)NCCCN3CCC(O)C3)n2)cc1 (centres unmarked) [Example A135, 1-(3-(3-hydroxypyrrolidin-1-yl)propyl)-3-(4-(2-(4-methoxyphenyl)propan-2-yl)thiazol-2-yl)urea] | 1240 | 112
5 | COc1ccc(C(C)(C)c2csc(NC(=O)NCCCS(C)(=O)=O)n2)cc1 [Example A136, 1-(4-(2-(4-methoxyphenyl)propan-2-yl)thiazol-2-yl)-3-(3-(methylsulfonyl)propyl) urea] | 640 | 209
6 | COc1ccc(C(C)(C)c2csc(NC(=O)NCCS(N)(=O)=O)n2)cc1 [Example A137, 2-(3-(4-(2-(4-methoxyphenyl)propan-2-yl)thiazol-2-yl)ureido)ethanesulfona-mide] | 1960 | 42
7 | COc1ccc(C(C)(C)c2csc(NC(=O)NCCCS(N)(=O)=O)n2)cc1 [Example A138, 3-(3-(4-(2-(4-methoxyphenyl)propan-2-yl)thiazol-2-yl)ureido)propane-1-sulfonamide] | 2380 | 97
8 | COc1ccc(C(C)(C)c2csc(NC(=O)NCc3ccc(N4CCC(O)CC4)cc3)n2)cc1 [Example A139, 1-(4-(4-hydroxypiperidin-1-yl)benzyl)-3-(4-(2-(4-methoxyphenyl)propan-2-yl)thiazol-2-yl)urea] | 1350 | 261
9 | COc1ccc(C(C)(C)c2csc(NC(=O)NCc3ccc(CO)cc3)n2)cc1 [Example A140, 1-(4-(hydroxymethyl)benzyl)-3-(4-(2-(4-methoxyphenyl)propan-2-yl)thiazol-2-yl)urea] | 5520 | 131
10 | COc1ccc(C(C)(C)c2csc(NC(=O)NCCCN3CCC(N(C)C)C3)n2)cc1 (centres unmarked) [Example A141, 1-(3-(3-(dimethylamino)pyrrolidin-1-yl)propyl)-3-(4-(2-(4-methoxyphenyl)propan-2-yl)thiazol-2-yl)urea] | 4220 | 228
11 | COc1ccc(C(C)(C)c2csc(NC(=O)NCCCN3CCN(C)CC3)n2)cc1 [Example A142, 1-(4-(2-(4-methoxyphenyl)propan-2-yl)thiazol-2-yl)-3-(3-(4-methylpiperazin-1-yl)propyl)urea] | 1330 | 180
12 | COc1ccc(C(C)(C)c2csc(NC(=O)NO)n2)cc1 [Example A144, 1-hydroxy-3-(4-(2-(4-methoxyphenyl)propan-2-yl)thiazol-2-yl)urea] | 1750 | 154
13 | COc1ccc(C(C)(C)c2csc(NC(=O)NCCCN(C)C)n2)cc1 [Example A145, 1-(3-(dimethylamino)propyl)-3-(4-(2-(4-methoxyphenyl)propan-2-yl)thiazol-2-yl)urea] | 4490 | 216
14 | CCN(CC)CCCNC(=O)Nc1nc(C(C)(C)c2ccc(OC)cc2)cs1 [Example A146, 1-(3-(diethylamino)propyl)-3-(4-(2-(4-methoxyphenyl)propan-2-yl)thiazol-2-yl)urea] | 3070 | 124
15 | CNS(=O)(=O)CCCNC(=O)Nc1nc(C(C)(C)c2ccc(OC)cc2)cs1 [Example A148, 3-(3-(4-(2-(4-methoxyphenyl)propan-2-yl)thiazol-2-yl)ureido)-N-methylpropane-1-sulfonamide] | 850 | 45
16 | CNS(=O)(=O)[C@H]1C[C@@H](CNC(=O)Nc2nc(C(C)(C)c3ccc(OC)cc3)cs2)C1 [Example A149, rac-(1s,3s)-3-((3-(4-(2-(4-methoxyphenyl)propan-2-yl)thiazol-2-yl)ureido)methyl)-N-methylcyclobutane-1-sulfonamide] | 9400 | 155
17 | CNS(=O)(=O)[C@H]1C[C@H](CNC(=O)Nc2nc(C(C)(C)c3ccc(OC)cc3)cs2)C1 [Example A150, rac-(1r,3r)-3-((3-(4-(2-(4-methoxyphenyl)propan-2-yl)thiazol-2-yl)ureido)methyl)-N-methylcyclobutane-1-sulfonamide] | 1410 | 25
18 | COc1ccc(C(C)(C)c2csc(NC(=O)NC(C)c3cc(F)c(N4CCNCC4)c(F)c3)n2)cc1 (centres unmarked) [Example A152, 1-(1-(3,5-difluoro-4-(piperazin-1-yl)phenyl)ethyl)-3-(4-(2-(4-methoxyphenyl)propan-2-yl)thiazol-2-yl)urea] | 350 | 55
19 | C#CC(C)(c1ccc(Br)cc1)c1csc(NC(=O)N2CC(O)C2)n1 (centres unmarked) [Example A153, N-(4-(2-(4-bromophenyl)but-3-yn-2-yl)thiazol-2-yl)-3-hydroxyazetidine-1-carboxamide] | 370 | 76

Row | Structure (SMILES) | IC50 [1] [nM] | IC50 [2] [nM]
20 | C#CC(C)(c1ccc(Br)cc1)c1csc(NC(=O)NCCCO)n1 (centres unmarked) [Example A154, 1-(4-(2-(4-bromophenyl)but-3-yn-2-yl)thiazol-2-yl)-3-(3-hydroxypropyl)urea] | 380 | 21
21 | C#CC(C)(c1ccc(Br)cc1)c1csc(NC(=O)NCCN2CCOCC2)n1 (centres unmarked) [Example A155, 1-(4-(2-(4-bromophenyl)but-3-yn-2-yl)thiazol-2-yl)-3-(2-morpholinoethyl)urea] | 900 | 30
22 | C#CC(C)(c1ccc(Br)cc1)c1csc(NC(=O)NCC(O)CO)n1 (centres unmarked) [Example A156, 1-(4-(2-(4-bromophenyl)but-3-yn-2-yl)thiazol-2-yl)-3-(2,3-dihydroxypropyl)urea] | 380 | 22
23 | C#CC(CC)(c1ccc(Br)cc1)c1csc(NC(=O)NCCO)n1 (centres unmarked) [Example A157, 1-(4-(3-(4-bromophenyl)pent-1-yn-3-yl)thiazol-2-yl)-3-(2-hydroxyethyl)urea] | 1360 | 22
24 | O=C(NCCO)Nc1nc(C2(c3ccc(Br)cc3)CCC2)cs1 [Example A158, 1-(4-(1-(4-bromophenyl)cyclobutyl)thiazol-2-yl)-3-(2-hydroxyethyl)urea] | 2860 | 67
25 | C#CC(C)(c1ccc(Br)cc1)c1csc(NC(=O)NCCO)n1 (centres unmarked) [Example A159, 1-(4-(2-(4-bromophenyl)but-3-yn-2-yl)thiazol-2-yl)-3-(4-hydroxyethyl)urea] | 490 | 48
26 | C#C[C@@](C)(c1ccc(Br)cc1)c1csc(NC(=O)NCCO)n1 [Example A160, (S)-1-(4-(2-(4-bromophenyl)but-3-yn-2-yl)thiazol-2-yl)-3-(2-hydroxyethyl)urea] | 170 | 10
27 | C#C[C@](C)(c1ccc(Br)cc1)c1csc(NC(=O)NCCO)n1 [Example A161, (R)-1-(4-(2-(4-bromophenyl)but-3-yn-2-yl)thiazol-2-yl)-3-(2-hydroxyethyl)urea] | 550 | 68
28 | C#CC(C)(c1ccc(Br)cc1)c1csc(NC(N)=O)n1 (centres unmarked) [Example A162, 1-(4-(2-(4-bromophenyl)but-3-yn-2-yl)thiazol-2-yl)urea] | 180 | 38
29 | C#CC(C)(c1ccc(Br)cc1)c1csc(NC(=O)N2CC(CO)C2)n1 (centres unmarked) [Example A165, N-(4-(2-(4-bromophenyl)but-3-yn-2-yl)thiazol-2-yl)-3-(hydroxymethyl)azetidine-1-carboxamide] | 730 | 138
30 | C#C[C@](C)(c1ccc(Br)cc1)c1csc(NC(=O)N2CC(CO)C2)n1 [Example A166, (R)-N-(4-(2-(4-bromophenyl)but-3-yn-2-yl)thiazol-2-yl)-3-(hydroxymethyl)azetidine-1-carboxamide] | 5710 | 25
31 | C#C[C@@](C)(c1ccc(Br)cc1)c1csc(NC(=O)N2CC(CO)C2)n1 [Example A167, (S)-N-(4-(2-(4-bromophenyl)but-3-yn-2-yl)thiazol-2-yl)-3-(hydroxymethyl)azetidine-1-carboxamide] | 740 | 7
32 | C#CC(C)(c1ccc(OC)cc1)c1csc(NC(=O)NCCO)n1 (centres unmarked) [Example A168, 1-(2-hydroxyethyl)-3-(4-(2-(4-methoxyphenyl)but-3-yn-2-yl)thiazol-2-yl)urea] | 400 | 27
33 | C#C[C@](C)(c1ccc(OC)cc1)c1csc(NC(=O)NCCO)n1 [Example A169, (R)-1-(2-hydroxyethyl)-3-(4-(2-(4-methoxyphenyl)but-3-yn-2-yl)thiazol-2-yl)urea] | 1670 | 23
34 | C#C[C@@](C)(c1ccc(OC)cc1)c1csc(NC(=O)NCCO)n1 [Example A170, (S)-1-(2-hydroxyethyl)-3-(4-(2-(4-methoxyphenyl)but-3-yn-2-yl)thiazol-2-yl)urea] | 460 | 8
35 | C#CC(C)(c1ccc(OC)cc1)c1csc(NC(N)=O)n1 (centres unmarked) [Example A171, 1-(4-(2-(4-methoxyphenyl)but-3-yn-2-yl)thiazol-2-yl)urea] | 730 | 16
36 | C#C[C@](C)(c1ccc(OC)cc1)c1csc(NC(N)=O)n1 [Example A172, (R)-1-(4-(2-(4-methoxyphenyl)but-3-yn-2-yl)thiazol-2-yl)urea] | 1280 | 36
37 | C#C[C@@](C)(c1ccc(OC)cc1)c1csc(NC(N)=O)n1 [Example A173, (S)-1-(4-(2-(4-methoxyphenyl)but-3-yn-2-yl)thiazol-2-yl)urea] | 580 | 8

— patent US20240109853A1 (Shanghai Yao Yuan Biotechnology Co., Ltd., priority 2020, published 2024)
